This experiment deals with T1, recombinant human CK2 (RRββ-holoenzyme) (Homo sapiens, UniProt P68400).
T1 construct: purchased Millipore
As to the kind of experiment: CK2 Kinase Assay (radiometric, [γ-33P] ATP). The note with it: final ATP concentration 15 μM; 10 min at 30° C.; eight concentrations; read-out: protein kinase CK2 activity IC50. Type of experiment: biochemical. How it is done: CK2 Kinase Assay was conducted using the protocol as described in Pierre F. et al; J. Med. Chem. 2011, 54, 635-654. The tested compounds in aqueous solution were added at a volume of 10 μL to a reaction mixture comprising 10 μL of assay dilution buffer (ADB; 20 mM MOPS, pH 7.2, 25 mM β-glycerol phosphate, 5 mM EGTA, 1 mM sodium orthovanadate, and 1 mM dithiothreitol), 10 μL of substrate peptide (RRRDDDSDDD, dissolved in ADB at a concentration of 1 mM), 10 μL of recombinant human CK2 (RRββ-holoenzyme, 25 ng dissolved in ADB; Millipore). Reactions were initiated by the addition of 10 μL of ATP solution (90% 75 mMMgCl2, 75 μM ATP (final ATP concentration: 15 μM) dissolved in ADB; 10% [γ-33P] ATP (stock 1 mCi/100 μL; 3000 Ci/mmol (Perkin-Elmer) and maintained for 10 min at 30° C. The reactions were quenched with 100 μL of 0.75% phosphoric acid and then transferred to and filtered through a phosphor cellulose filter plate (Millipore). After washing each well five times with 0.75% phosphoric acid, the plate was dried under vacuum for 5 min and, following the addition of 15 μL of scintillation fluid to each well, the residual radioactivity was measured using a Wallac luminescence counter. The IC50 values were derived from eight concentrations of test inhibitors.

T1 sequence (P68400 whole entry): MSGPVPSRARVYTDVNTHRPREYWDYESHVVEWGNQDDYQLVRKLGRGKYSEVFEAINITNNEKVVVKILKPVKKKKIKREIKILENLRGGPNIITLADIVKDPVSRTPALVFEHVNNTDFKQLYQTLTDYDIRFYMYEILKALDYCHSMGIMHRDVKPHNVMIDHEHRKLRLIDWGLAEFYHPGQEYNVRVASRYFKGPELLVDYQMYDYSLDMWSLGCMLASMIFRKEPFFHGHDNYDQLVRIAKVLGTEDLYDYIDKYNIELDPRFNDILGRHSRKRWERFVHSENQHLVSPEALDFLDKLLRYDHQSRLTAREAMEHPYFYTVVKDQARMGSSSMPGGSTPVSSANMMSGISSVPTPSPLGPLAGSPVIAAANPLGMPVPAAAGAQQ
T1 sequence (P67870 whole entry partner): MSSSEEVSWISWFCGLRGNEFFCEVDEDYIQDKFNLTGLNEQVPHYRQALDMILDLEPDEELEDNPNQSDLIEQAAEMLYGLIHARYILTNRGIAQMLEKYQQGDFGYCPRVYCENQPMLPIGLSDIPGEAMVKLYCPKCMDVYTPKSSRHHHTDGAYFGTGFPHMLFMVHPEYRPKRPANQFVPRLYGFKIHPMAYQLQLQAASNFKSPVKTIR

As to `O=C(O)c1cn2c(Nc3cccc(Cl)c3)nc3ccncc3c2n1` [Compound 1], the IC50 (in general, the concentration needed to halve the response being measured) is 41 nM.

The values are drawn from patent publication US11987581B1 (KING FAISAL UNIVERSITY, priority 2023, dated 2024).
